Data as given in patent publication US20150045433A1, “METHODS AND COMPOSITIONS FOR INDUCING PHYSIOLOGICAL HYPERTROPHY” (THE REGENTS OF THE UNIVERSITY OF COLORADO, A BODY CORPORATE, priority 2009, published 2015).
“Also recorded” adds a separate entry of the source.

Columns and labels:
[1] = test system: neonatal rat ventricular myocytes (NRVMs); assay: NRVM cell size / hypertrophy (a-actinin staining, Coulter Counter); assay type: cell-based
Procedure: Primary culture cardiomyocytes prepared from neonatal rats were treated with fasted and post-fed serum samples. Twenty four hours later the cells were removed from the culturing dish and analyzed for changes in cell size by immunostaining or by automatic analyzer such as Coulter Counter.
In other experiments, neonatal rat cardiac myocytes (NRVMs) were prepared according to the method described in Waspe et al. (1990). In brief, cells were obtained from the hearts of Sprague-Dawley rat pups (1-2 days old) by trypsinization and plated in MEM medium (Hanks' salts) with 5% calf serum. After 48 h in culture, cells were transferred to serum-free medium supplemented with transferring and insulin (each 10 μg/ml). Cells were maintained in 60- or 35-mm culture dishes at a density of 200,000 cells/ml. Contaminating non-muscle cells were kept at <10% by pre-plating and addition of 0.1 mM bromodeoxyuridine to the medium though day 3 of culture.
Before treating the cells, serum samples were thawed and heat inactivated at 58° C. for 30 min. […]
Cardiomyocytes grown on gelatin-coated coverslips were infected with Ad Aqp7 for 48 h. […] Images were captured at a 40x magnification with a fluorescence microscope (Nikon E800) equipped with a digital camera (AxioCam) and Axiovision, version 3.0.6.36 imaging software (Carl Zeiss, Thornwood, NY). The surface areas were measured using NIH image software (Image J) and at least 100 individualized cells were analyzed per each experiment. Cell size was also determined by particle size analyzer, Coulter Counter Multisizer 3 ([…]).
Inhibition of fatty acid transport blocks serum-induced NRVM hypertrophy. […] NRVMs were treated with serum (2%) in the presence and absence of SSO (400 μM) for 48 hours and cell size was determined using a Coulter Counter.
Individual fatty acids were complexed to BSA as described by de Vries et al. (1997), which is hereby incorporated by reference. […] NRVM gene expression and mean cell diameter were determined after either 24 or 48 hours, respectively. […]

AQP7 mRNA = AQP7 mRNA expression in neonatal rat cardiomyocytes by qPCR; assay type: cell-based; conditions: for AQP7 mRNA expression: fasted serum (2%) plus individual fatty acid (C14: 10, 33, 100 μM; C16: 33, 100, 300 μM; C16:1: 3, 10, 33 μM), 48 hours
Procedure: Individual fatty acids were complexed to BSA as described by de Vries et al. (1997), which is hereby incorporated by reference. […] An equal volume of Na2CO3 (10 mM) was added and the ethanol was evaporated at 60° C. under continuous N2 flow. The fatty acid mix was added dropwise to 10% BSA. BSA/fatty acid complexes were then dialyzed four times at 4° C. during 4-6 hours in NH4HCO3 (0.1 M). Complexes were then frozen, lyophilized overnight, and resuspended in NRVM rinse media (MEM/PB12/Hepes) for a final concentration of 7 mM. NRVMs were treated with fasted serum, 1 day post-fed serum, or fasted serum+individual fatty acids. […] NRVM gene expression and mean cell diameter were determined after either 24 or 48 hours, respectively.
Dose-dependent effects of individual fatty acids on AQP7 expression. […] Fasted serum (2% final) and fatty acids were diluted in serum-free media (MEM/Hepes/PB12) containing insulin, trnsferrin, BSA, and BrdU. Cells were treated for 48 hours and AQP7 mRNA expression was determined using qPCR with 18S as the normalizing gene.
siRNA studies. Rat AQP7 mRNA sequence was analyzed for potential small interfering RNA (siRNA) target regions using a sequence identification tool (Ambion, Inc., Austin, Tex.). Potential target sequences were transcribed from oligonucleotide templates using the Silencer siRNA Construction kit (Ambion, Inc., Austin, Tex.). To test for the ability of siRNAs to effectively reduce AQP7 expression, NRVMs were transfected with siRNA (100 nM) using Lipofectamine Plus reagent as specified by the manufacturer (Invitrogen, Carlsbad, Calif.). Several rat AQP7-specific siRNA sequences (#1: 5′-[…]-3′ (SEQ ID NO:22); #2: […]-3′ (SEQ ID NO:23); #3 5′-[…]-3′ (SEQ ID NO:24)) were tested for efficacy of gene knockdown using qPCR. […] A nonspecific siRNA (Silencer Negative Control #2; Ambion, Inc., Austin, Tex.) was used as a negative control.

[2] = test system: fetal gene program (β-myosin heavy chain, ANF, BNP, skeletal actin, SERCA); assay: Pathologic fetal gene expression in NRVMs by qPCR; assay type: cell-based, rat; conditions: 48 hours
Procedure: FIG. 4. […] Neonatal rat cardiomyocytes were untreated (lightest gray bars) or treated with fasted serum (light gray bars), post-fed serum (black bars) and Phenylephrin (PE; dark gray bars). After 48 hours, RNA was isolated and cDNA was obtained by standard procedures. The expression of several pathologic hypertrophic markers was measured by quantitative real-time PCR including β-myosin heavy chain, atrial natriuretic factor (ANF), brain natriuretic peptide (BNP), skeletal actin and sarcoplasmic reticulum calcium ATPase (SERCA).
Total RNA was extracted by TRizol (Invitrogen). 0.5 μg of RNA was reverse transcribed into cDNA using the SuperScript III first-strand cDNA synthesis kit (Invitrogen). Typically, 0.1 ng of cDNA, 12.5 nM of each primer, and Power SYBER Green PCR Master Mix (Applied Biosystems, Foster City, Calif.) were used in the reverse transcription (RT)-PCR reactions. Reactions were performed using the ABI7300 system. The primers used are presented on Table 1.
Total RNA was extracted from mouse or python ventricle and NRVMs using TRI Reagent (Invitrogen). 0.5 to 2.0 μg of RNA was reverse transcribed into cDNA using the SuperScript III first-strand cDNA synthesis kit (Invitrogen). Quantitative real time PCR reactions were performed using the ABI7300 system (Applied Biosystems, Foster City, Calif., USA) and the Power SYBR Green PCR Master Mix (Applied Biosystems). […]

CCCCCCCCCCCCCC(=O)O [C14, tetradecanoic acid]
cell size ([1]; fasted plasma (2%) supplemented with fatty acids at 1 DPF levels (C14 40 μM; C16 137 μM; C16:1 7.5 μM), 48 hours): significant increase in cell size | Aqp7 mRNA levels (AQP7 mRNA; fasted plasma supplemented with FFAs, relative to 1 DPF plasma): comparable levels observed with 1 DPF plasma | AQP7 mRNA expression (AQP7 mRNA): tended to increase AQP7 mRNA expression in a dose-dependent manner

CCCCCCCCCCCCCCCC(=O)O [C16, hexadecanoid acid]
AQP7 mRNA expression (AQP7 mRNA): tended to increase AQP7 mRNA expression in a dose-dependent manner

CCCCCC/C=C\CCCCCCCC(=O)O [C16:1, (z)-9-hexadecenoic acid]
AQP7 mRNA expression (AQP7 mRNA): tended to increase AQP7 mRNA expression in a dose-dependent manner

CCCCCCCC/C=C\CCCCCCCC(=O)ON1C(=O)CC(S(=O)(=O)O)C1=O (centres unmarked) [SSO, sulfo-N-succinimidyl oleate]
effect on cell growth (hypertrophy) induced by fed serum/plasma ([1]; SSO 400 μM, 2% 1DPF fed serum/plasma): completely blocks the cell growth induced by the fed-serum; also recorded: completely blocked the pro-hypertrophic effect of fed plasma; also recorded: significantly reduced | cell size, no serum (control) ([1]; presence of SSO, no serum): smaller

CNC[C@H](O)c1cccc(O)c1 [phenylephrine]
activation of fetal gene program / pathological gene expression [2]: robust activation of pathological patterns of gene expression
